Pest or weed control data for eight compounds are collected here from patent publication US9247741B2, “Use of macrocyclic picolinamides as fungicides” (DOW AGROSCIENCES LLC, priority 2013, dated 2016).

Where two headings read alike, the source gives them in different places.

Common to all, as to format: in vivo
For one assay, the system named is Erysiphe cichoracearum. In words: Powdery mildew of cucumber (ERYSCI) disease control. Particulars: Golovinomyces cichoracearum, 24 h, 1 Day Protectant, read-out: ERYSCI disease control rating. The method, then: Technical grades of materials were dissolved in acetone, which were then mixed with nine volumes of water containing 110 ppm Triton X-100. The fungicide solutions were applied onto wheat seedlings using an automated booth sprayer to run-off. All sprayed plants were allowed to air dry prior to further handling. All fungicides were evaluated using the aforementioned method for their activity vs. all target diseases. Wheat leaf blotch and brown rust activity were also evaluated using track spray applications, in which case the fungicides were formulated as EC formulations, containing 0.1% Trycol 5941 in the spray solutions. Wheat plants (variety Yuma) were grown from seed in a greenhouse in 50% mineral soil/50% soil-less Metro mix until the first leaf was fully emerged, with 7-10 seedlings per pot. These plants were inoculated with an aqueous spore suspension of Septoria tritici either prior to or after fungicide treatments. After inoculation the plants were kept in 100% relative humidity (one day in a dark dew chamber followed by two to three days in a lighted dew chamber at 20° C.) to permit spores to germinate and infect the leaf. The plants were then transferred to a greenhouse set at 20° C. for disease to develop. When disease symptoms were fully expressed on the l^st leaves of untreated plants, infection levels were assessed on a scale of 0 to 100 percent disease severity. Percent disease control was calculated using the ratio of disease severity on treated plants relative to untreated plants. Evaluation of Fungicidal Activity: Powdery Mildew of Cucumber (Erysiphe cichoracearum; Bayer Code […]) Cucumber seedlings (variety Bush Pickle) were grown in soil-less Metro mix, with one plant per pot, and used in the test when 12 to 14 days old. Plants were inoculated with a spore suspension 24 hr following fungicide treatments. After inoculation the plants remained in the greenhouse set at 20° C. until disease was fully expressed. Fungicide formulation, application and disease assessment on the sprayed leaves followed the procedures as described in the Example A.

In another assay the test system is Uncinula necator. In words: Grape powdery mildew (UNCINE) disease control. The settings on record: Erysiphe necator, 24 h, 1 Day Protectant, read-out: UNCINE disease control rating. As to the method: Technical grades of materials were dissolved in acetone, which were then mixed with nine volumes of water containing 110 ppm Triton X-100. The fungicide solutions were applied onto wheat seedlings using an automated booth sprayer to run-off. All sprayed plants were allowed to air dry prior to further handling. All fungicides were evaluated using the aforementioned method for their activity vs. all target diseases. Wheat leaf blotch and brown rust activity were also evaluated using track spray applications, in which case the fungicides were formulated as EC formulations, containing 0.1% Trycol 5941 in the spray solutions. Wheat plants (variety Yuma) were grown from seed in a greenhouse in 50% mineral soil/50% soil-less Metro mix until the first leaf was fully emerged, with 7-10 seedlings per pot. These plants were inoculated with an aqueous spore suspension of Septoria tritici either prior to or after fungicide treatments. After inoculation the plants were kept in 100% relative humidity (one day in a dark dew chamber followed by two to three days in a lighted dew chamber at 20° C.) to permit spores to germinate and infect the leaf. The plants were then transferred to a greenhouse set at 20° C. for disease to develop. When disease symptoms were fully expressed on the l^st leaves of untreated plants, infection levels were assessed on a scale of 0 to 100 percent disease severity. Percent disease control was calculated using the ratio of disease severity on treated plants relative to untreated plants. Evaluation of Fungicidal Activity: Grape Powdery Mildew (Uncinula necator; Bayer Code […]) Grape seedlings (variety Carignane) were grown in soil-less Metro mix, with one plant per pot, and used in the test when approximately one month old. Plants were inoculated 24 hr after fungicide treatment by shaking spores from infected leaves over test plants. Plants were maintained in a greenhouse set at 20° C. until disease was fully developed. Fungicide formulation, application and disease assessment on the sprayed leaves followed the procedures as described in the Example A.

For assay [1], the system named is Mycosphaerella graminicola; Anamorph: Septoria tritici. Put plainly: Leaf blotch of wheat (SEPTTR) disease control on wheat seedlings. The settings on record: Zymoseptoria tritici, wheat; for pest or weed control at 121.5 g/ha: 121.5 g/H (low volume track spray); for pest or weed control at 100 ppm: 100 ppm (high volume). As to the method: Evaluation of Fungicidal Activity: Leaf Blotch of Wheat (Mycosphaerella graminicola; Anamorph: Septoria tritici; Bayer Code […]) Technical grades of materials were dissolved in acetone, which were then mixed with nine volumes of water containing 110 ppm Triton X-100. The fungicide solutions were applied onto wheat seedlings using an automated booth sprayer to run-off. All sprayed plants were allowed to air dry prior to further handling. All fungicides were evaluated using the aforementioned method for their activity vs. all target diseases. Wheat leaf blotch and brown rust activity were also evaluated using track spray applications, in which case the fungicides were formulated as EC formulations, containing 0.1% Trycol 5941 in the spray solutions. Wheat plants (variety Yuma) were grown from seed in a greenhouse in 50% mineral soil/50% soil-less Metro mix until the first leaf was fully emerged, with 7-10 seedlings per pot. These plants were inoculated with an aqueous spore suspension of Septoria tritici either prior to or after fungicide treatments. After inoculation the plants were kept in 100% relative humidity (one day in a dark dew chamber followed by two to three days in a lighted dew chamber at 20° C.) to permit spores to germinate and infect the leaf. The plants were then transferred to a greenhouse set at 20° C. for disease to develop. When disease symptoms were fully expressed on the l^st leaves of untreated plants, infection levels were assessed on a scale of 0 to 100 percent disease severity. Percent disease control was calculated using the ratio of disease severity on treated plants relative to untreated plants.

Assay [2] deals with Blumeria graminis Fsp. Hordei. Put plainly: Barley powdery mildew (ERYSGH) disease control. The settings on record: 24 h, 1 Day Protectant, read-out: ERYSGH disease control rating. As to the method:
Technical grades of materials were dissolved in acetone, which were then mixed with nine volumes of water containing 110 ppm Triton X-100. The fungicide solutions were applied onto wheat seedlings using an automated booth sprayer to run-off. All sprayed plants were allowed to air dry prior to further handling. All fungicides were evaluated using the aforementioned method for their activity vs. all target diseases. Wheat leaf blotch and brown rust activity were also evaluated using track spray applications, in which case the fungicides were formulated as EC formulations, containing 0.1% Trycol 5941 in the spray solutions. Wheat plants (variety Yuma) were grown from seed in a greenhouse in 50% mineral soil/50% soil-less Metro mix until the first leaf was fully emerged, with 7-10 seedlings per pot. These plants were inoculated with an aqueous spore suspension of Septoria tritici either prior to or after fungicide treatments. After inoculation the plants were kept in 100% relative humidity (one day in a dark dew chamber followed by two to three days in a lighted dew chamber at 20° C.) to permit spores to germinate and infect the leaf. The plants were then transferred to a greenhouse set at 20° C. for disease to develop. When disease symptoms were fully expressed on the l^st leaves of untreated plants, infection levels were assessed on a scale of 0 to 100 percent disease severity. Percent disease control was calculated using the ratio of disease severity on treated plants relative to untreated plants. Evaluation of Fungicidal Activity: Barley Powdery Mildew (Blumeria graminis Fsp. Hordei; Synonym: Erysiphe graminis Fsp. Hordei; Bayer Code […]) Barley seedlings (variety Harrington) were propagated in soil-less Metro mix, with each pot having 8 to 12 plants, and used in the test when first leaf was fully emerged. Test plants were inoculated by dusting with infected stock plants 24 hr after fungicide treatments. After inoculation the plants were kept in a greenhouse set at 20° C. for disease to develop. Fungicide formulation, application and disease assessment on the sprayed leaves followed the procedures as described in the Example A.

Where [3] appears, read: 24 h, 1 Day Protectant, read-out: SEPTTR 1DP disease control rating.
[4] abbreviates: 72 h, 3 Day Curative, read-out: SEPTTR 3DC disease control rating.

For the compound `CCCO[C@H]1CCC[C@H](NC(=O)c2nccc(OC)c2OCOC(C)=O)C(=O)O[C@@H](C)[C@@H]1CCC(C)C` [Compound 25, ((2-(((3S,7S,8S,9S)-8-isopentyl-9-methyl-2-oxo-7-propoxyoxonan-3-yl)carbamoyl)-4-methoxypyridin-3-yl)oxy)methyl acetate], the pest or weed control at 100 ppm is under 70% with Erysiphe cichoracearum, over 70% in the assay on Uncinula necator and over 70% in assay [2]. In addition, the pest or weed control at 121.5 g/ha is under 70% in assay [1] (setting [3]) and over 70% in assay [1] (setting [4]).
For `COc1ccnc(C(=O)N[C@H]2CCC[C@H](OCC3CC3)[C@@H](Cc3ccc(F)cc3)[C@H](C)OC2=O)c1OCOC(C)=O` [Compound 61], the pest or weed control at 100 ppm in the assay on Erysiphe cichoracearum is under 70%; with Uncinula necator it was over 70%; in assay [2], under 70%. Besides, the pest or weed control at 121.5 g/ha in assay [1] (setting [3]) and in assay [1] (setting [4]) was over 70% in each case.
Turning to `CCCO[C@H]1CCC[C@H](NC(=O)c2nccc(OC)c2OC(C)=O)C(=O)O[C@@H](C)[C@@H]1CCC(C)C` [Compound 74, 2-(((3S,7S,8S,9S)-8-isopentyl-9-methyl-2-oxo-7-propoxyoxonan-3-yl)carbamoyl)-4-methoxypyridin-3-yl acetate], the results for the pest or weed control at 100 ppm (with Erysiphe cichoracearum; with Uncinula necator; in assay [2]) were over 70%, over 70% and under 70%, respectively. The pest or weed control at 121.5 g/ha in assay [1] (setting [3]) and in assay [1] (setting [4]) was over 70% each time.
As to `COc1ccnc(C(=O)N[C@H]2CCC[C@H](Oc3ccccc3)[C@@H](CCC(C)C)[C@H](C)OC2=O)c1OCOC(C)=O` [Compound 40], the pest or weed control at 100 ppm (in the assay on Erysiphe cichoracearum; in the assay with Uncinula necator; in assay [2]) was over 70% throughout. In addition, the pest or weed control at 121.5 g/ha in assay [1] (setting [3]) and in assay [1] (setting [4]) was over 70% throughout.
Consider `CCCC[C@H]1[C@H](C)OC(=O)[C@@H](NC(=O)c2nccc(OC)c2OCOC(C)=O)CCC[C@@H]1OCC1CC1` [Compound 73], for which the pest or weed control at 100 ppm with Erysiphe cichoracearum was under 70%; in the assay on Uncinula necator, over 70%; in assay [2] it was over 70%. The pest or weed control at 121.5 g/ha in assay [1] (setting [3]) and in assay [1] (setting [4]) was over 70% throughout.
Turning to `COc1ccnc(C(=O)N[C@H]2CCC[C@H](Oc3ccccc3)[C@@H](CCC(C)C)[C@H](C)OC2=O)c1OC(C)=O` [Compound 36], the pest or weed control at 100 ppm (in the assay with Erysiphe cichoracearum; in the assay on Uncinula necator; in assay [2]) was over 70% each time. Also, the pest or weed control at 121.5 g/ha in assay [1] (setting [3]) and in assay [1] (setting [4]) was over 70% in each case.
Consider `CCCO[C@H]1CCC[C@H](NC(=O)c2nccc(OC)c2OC(C)=O)C(=O)O[C@@H](C)[C@@H]1Cc1ccccc1` [Compound 70], for which the pest or weed control at 100 ppm is under 70% in the assay with Erysiphe cichoracearum; over 70% with Uncinula necator; over 70% in assay [1] (setting [3]); over 70% in assay [1] (setting [4]); under 70% in assay [2]. Further, the pest or weed control at 121.5 g/ha in assay [1] (setting [3]) and in assay [1] (setting [4]) was over 70% each time.
Take `CCCC[C@H]1[C@H](C)OC(=O)[C@@H](NC(=O)c2nccc(OC)c2OCOC(C)=O)CCC[C@@H]1Oc1ccccc1` [Compound 33]: the pest or weed control at 100 ppm (in the assay on Erysiphe cichoracearum; with Uncinula necator; in assay [2]) was over 70% each time. In addition, the pest or weed control at 121.5 g/ha in assay [1] (setting [3]) and in assay [1] (setting [4]) was over 70% each time.
